For 35 substances, IC50 results are on record in patent US8653096B2, “Chemokine receptor antagonists and methods of use thereof” (Millennium Pharmaceuticals, Inc., priority 2001, dated 2014).

This experiment has as its target T1, RANTES/MIP-1α chemokine receptor (CCR1) in THP-1 cell membranes (Homo sapiens, UniProt P32246).
T1 construct: Membranes were prepared from THP-1 cells (ATCC #TIB202); host or cells: THP-1 cells (membrane preparation)
T1 sequence (P32246 1-355): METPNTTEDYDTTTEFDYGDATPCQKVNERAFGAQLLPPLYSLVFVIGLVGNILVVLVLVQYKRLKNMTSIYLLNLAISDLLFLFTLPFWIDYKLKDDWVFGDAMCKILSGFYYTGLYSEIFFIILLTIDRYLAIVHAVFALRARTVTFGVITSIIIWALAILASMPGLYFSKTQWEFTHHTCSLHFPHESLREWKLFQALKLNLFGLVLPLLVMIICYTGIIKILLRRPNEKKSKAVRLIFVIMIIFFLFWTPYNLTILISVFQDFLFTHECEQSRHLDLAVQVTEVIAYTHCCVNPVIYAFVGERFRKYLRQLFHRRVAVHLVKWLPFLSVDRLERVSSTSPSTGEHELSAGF
Description: Receptor binding assay: 125I-RANTES or 125I-MIP-1α binding to THP-1 cell membranes. As to conditions: inhibitor concentration required for 50% inhibition of specific binding; 125I-RANTES or 125I-MIP-1α as ligand, THP-1 cell membranes; read-out: IC50. The method, then: Membranes were prepared from THP-1 cells (ATCC #TIB202). Cells were harvested by centrifugation, washed twice with PBS (phosphate-buffered saline), and the cell pellets were frozen at −70 to −85° C. The frozen pellet was thawed in ice-cold lysis buffer consisting of 5 mM HEPES (N-2-hydroxyethylpiperazine-N′-2-ethane-sulfonic acid) pH 7.5, 2 mM EDTA (ethylenediaminetetraacetic acid), 5 μg/ml each aprotinin, leupeptin, and chymostatin (protease inhibitors), and 100 μg/ml PMSF (phenyl methane sulfonyl fluoride—also a protease inhibitor), at a concentration of 1 to 5×10^7 cells/ml. This procedure results in cell lysis. The suspension was mixed well to resuspend all of the frozen cell pellet. Nuclei and cell debris were removed by centrifugation of 400×g for 10 minutes at 4° C. The supernatant was transferred to a fresh tube and the membrane fragments were collected by centrifugation at 25,000×g for 30 minutes at 4° C. The supernatant was aspirated and the pellet was resuspended in freezing buffer consisting of 10 mM HEPES pH 7.5, 300 mM sucrose, 1 μg/ml each aprotinin, leupeptin, and chymostatin, and 10 μg/ml PMSF (approximately 0.1 ml per each 10^8 cells). All clumps were resolved using a minihomogenizer, and the total protein concentration was determined using a protein assay kit (Bio-Rad, Hercules, Calif., cat #500-0002). The membrane solution was then aliquoted and frozen at −70 to −85° C. until needed.
Binding Assays utilized the membranes described above. […] The binding reactions were performed in 60 to 100 μl of a binding buffer consisting of 10 mM HEPES pH 7.2, 1 mM CaCl2, 5 mM MgCl2, and 0.5% BSA (bovine serum albumin), for 60 min at room temperature. The binding reactions were terminated by harvesting the membranes by rapid filtration through glass fiber filters (GF/B or GF/C, Packard) which were presoaked in 0.3% polyethyleneimine. The filters were rinsed with approximately 600 μl of binding buffer containing 0.5 M NaCl, dried, and the amount of bound radioactivity was determined by scintillation counting in a Topcount beta-plate counter.
Specific binding is defined as the total binding minus the non-specific binding; non-specific binding is the amount of cpm still detected in the presence of excess unlabeled Rantes or MIP-1α.
Regarding “4-(4-Chlorophenyl)-1-[3-(5,11-dihydro-7-hydroxy [1]benzoxepino[2,3-b]pyridin-5-ylidene)propyl]piperidin-4-ol [Example 44]”, the half-inhibitory concentration (IC50) is under 1 µM.

Consider “4-(4-Chlorophenyl)-1-[3-(5,11-dihydro-7-hydroxy[1]benzoxepino[2,3-b]pyridin-5-ylidene)propyl]piperidine [Example 151]”, for which the IC50 was under 1 µM.

As to “4-(4-Chlorophenyl)-1-[3-(5,11-dihydro-7-isopropoxy[1]benzoxepino[2,3-b]pyridin-5-ylidene)propyl]piperidin-4-ol [Example 47]”, the IC50 is under 1 µM.

Turning to “4-(4-Chlorophenyl)-1-[3-(5,11-dihydro-7-methoxy[1]benzoxepino[2,3-b]pyridin-5-ylidene)propyl]-1,2,3,6-tetrahydropyridine [Example 194]”, the IC50 was under 1 µM.

Turning to “4-(4-Chlorophenyl)-1-[3-(5,11-dihydro-7-methoxy[1]benzoxepino[2,3-b]pyridin-5-ylidene)propyl]piperidin-4-ol [Example 45]”, the half-inhibitory concentration (IC50) is under 1 µM.

Regarding “4-(4-Chlorophenyl)-1-[3-(5,11-dihydro-7-methoxy[1]benzoxepino[2,3-b]pyridin-5-ylidene)propyl]piperidine [Example 65]”, the IC50 was under 1 µM.

Consider “4-(4-Chlorophenyl)-1-[3-(5,11-dihydro-7-methylaminocarbonyl[1]benzoxepino[2,3-b]pyridin-5-ylidene)propyl]piperidin-4-ol [Example 268]”, for which the IC50 is under 1 µM.

For the substance “4-(4-Chlorophenyl)-1-[3-(5,11-dihydro-7-methylaminocarbonylmethyloxy[1]benzoxepino[2,3-b]pyridin-5-ylidene)propyl]piperidin-4-ol [Example 182]”, the half-inhibitory concentration (IC50) is under 1 µM.

For the substance “4-(4-Chlorophenyl)-1-[3-(5,11-dihydro-7-morpholinocarbonylmethyloxy[1]benzoxepino[2,3-b]pyridin-5-ylidene)propyl]piperidin-4-ol [Example 135]”, the IC50 is under 1 µM.

As for “4-(4-Chlorophenyl)-1-[3-(5,11-dihydro-7-phenyl[1]benzoxepino[2,3-b]pyridin-5-ylidene)propyl]piperidin-4-ol [Example 291]”, the IC50 is under 1 µM.

As to “4-(4-Chlorophenyl)-1-[3-(5,11-dihydro-7-propargyloxy[1]benzoxepino [2,3-b]pyridin-5-ylidene)propyl]piperidin-4-ol [Example 173]”, the IC50 is under 1 µM.

For “4-(4-Chlorophenyl)-1-[3-(5,11-dihydro-7-propoxy[1]benzoxepino[2,3-b]pyridin-5-ylidene)propyl]piperidin-4-ol [Example 128]”, the IC50 was under 1 µM.

On to “4-(4-Chlorophenyl)-1-[3-(5,11-dihydro-8-methoxy[1]benzoxepino[2,3-b]pyridin-5-ylidene)propyl]piperidin-4-ol [Example 114]”, for which the IC50 was under 1 µM.

Take “4-(4-Chlorophenyl)-1-[3-(5,11-dihydro-9-methoxy[1]benzoxepino[2,3-b]pyridin-5-ylidene)propyl]piperidin-4-ol [Example 166]”: the concentration for half-maximal inhibition (IC50) is under 10 µM.

With “4-(4-Chlorophenyl)-1-[3-(5,11-dihydro[1]benzothiepino[2,3-b]pyridin-5-ylidene)propyl]piperidin-4-ol [Example 111]”, the half-maximal inhibitory concentration (IC50) was under 1 µM.

As for “4-(4-Chlorophenyl)-1-[3-(7-(2-ethoxycarboxy)ethyl-5,11-dihydro[1]benzoxepino[2,3-b]pyridin-5-ylidene)propyl]piperidin-4-ol [Example 288]”, the concentration for half-maximal inhibition (IC50) was under 1 µM.

“4-(4-Chlorophenyl)-1-[3-(7-(2-furyl)-5,11-dihydro[1]benzoxepino[2,3-b]pyridin-5-ylidene)propyl]piperidin-4-ol [Example 292]”: the half-inhibitory concentration (IC50) was under 1 µM.

In the case of “4-(4-Chlorophenyl)-1-[3-(7-carboxymethyl-5,11-dihydro[1]benzoxepino[2,3-b]pyridin-5-ylidene)propyl]piperidin-4-ol [Example 120]”, the IC50 is under 1 µM.

Take “4-(4-Chlorophenyl)-1-[3-(7-cyanomethyloxy-5,11-dihydro[1]benzoxepino[2,3-b]pyridin-5-ylidene)propyl]piperidin-4-ol [Example 49]”: the IC50 is under 1 µM.

Turning to “4-(4-Chlorophenyl)-1-[3-(7-cyclopentoxy-5,11-dihydro[1]benzoxepino[2,3-b]pyridin-5-ylidene)propyl]piperidin-4-ol [Example 174]”, the 50% inhibitory concentration (IC50) is under 1 µM.

As for “4-(4-Chlorophenyl)-1-[3-(7-cyclopropylmethyloxy-5,11-dihydro [1]benzoxepino[2,3-b]pyridin-5-ylidene)propyl]piperidin-4-ol [Example 130]”, the IC50 is under 1 µM.

With “4-(4-Chlorophenyl)-1-[3-(7-diethylaminocarbonyl-5,11-dihydro[1]benzoxepino[2,3-b]pyridin-5-ylidene)propyl]piperidin-4-ol [Example 270]”, the concentration for half-maximal inhibition (IC50) is under 1 µM.

In the case of “4-(4-Chlorophenyl)-1-[3-(7-diethylaminocarbonylmethyloxy-5,11-dihydro[1]benzoxepino[2,3-b]pyridin-5-ylidene)propyl]piperidin-4-ol [Example 263]”, the concentration for half-maximal inhibition (IC50) was under 1 µM.

With “4-(4-Chlorophenyl)-1-[3-(7-dimethylaminocarbonyl-5,11-dihydro[1]benzoxepino[2,3-b]pyridin-5-ylidene)propyl]piperidin-4-ol [Example 198]”, the half-maximal inhibitory concentration (IC50) was under 1 µM.

Turning to “4-(4-Chlorophenyl)-1-[3-(7-dimethylaminocarbonylmethyl-5,11-dihydro[1]benzoxepino[2,3-b]pyridin-5-ylidene)propyl]piperidin-4-ol [Example 122]”, the IC50 was under 1 µM.

In the case of “4-(4-Cyanophenyl)-1-[3-(5,11-dihydro-7-methoxy[1]benzoxepino[2,3-b]pyridin-5-ylidene)propyl]piperidin-4-ol [Example 141]”, the IC50 was under 1 µM.

As to “4-(5-Chloro-2-keto-1-benzimidazolinyl)-1-[3-(5,11-dihydro-7-methoxy[1]benzoxepino[2,3-b]pyridin-5-ylidene)propyl]piperidine [Example 85]”, the half-maximal inhibitory concentration (IC50) is under 1 µM.

On to “4-(5-Chloropyridin-2-yl)-1-[3-(5,11-dihydro-7-methoxy[1]benzoxepino[2,3-b]pyridin-5-ylidene)propyl]piperidin-4-ol [Example 83]”, for which the half-maximal inhibitory concentration (IC50) is under 1000 µM.

Turning to “4-(7-Chloro-1,2-benzisoxazol-3-yl)-1-[3-(5,11-dihydro-7-methoxy[1]benzoxepino[2,3-b]pyridin-5-ylidene)propyl]piperidine [Example 185]”, the IC50 is under 1000 µM.

With “4-(7-Chloroindol-3-yl)-1-[3-(5,11-dihydro-7-methoxy[1]benzoxepino[2,3-b]pyridin-5-ylidene)propyl]-1,2,3,6-tetrahydropyridine [Example 195]”, the concentration for half-maximal inhibition (IC50) was under 10 µM.

In the case of “4-(7-Chloroindol-3-yl)-1-[3-(5,11-dihydro-7-methoxy[1]benzoxepino[2,3-b]pyridin-5-ylidene)propyl]piperidine [Example 186]”, the half-inhibitory concentration (IC50) is under 1 µM.

For the substance “4-(p-Chloroanilino)-1-[3-(5,11-dihydro-7-methoxy[1]benzoxepino[2,3-b]pyridin-5-ylidene)propyl]piperidine [Example 86]”, the half-maximal inhibitory concentration (IC50) was over 10 µM.

With “4-Azido-4-(4-chlorophenyl)-1-[3-(5,11-dihydro-7-methoxy[1]benzoxepino[2,3-b]pyridin-5-ylidene)propyl]piperidine [Example 187]”, the IC50 was under 1 µM.

Consider “4-Benzyl-1-[3-(5,11-dihydro-7-methoxy[1]benzoxepino[2,3-b]pyridin-5-ylidene)propyl]piperidin-4-ol [Example 62]”, for which the IC50 was under 10 µM.

For “4-Cyano-1-[3-(5,11-dihydro-7-methoxy[1]benzoxepino[2,3-b]pyridin-5-ylidene)propyl]-4-phenylpiperidine [Example 63]”, the half-maximal inhibitory concentration (IC50) is under 10 µM.

In general, IC50 refers to the concentration at which inhibition is half-maximal.
